Results from US6495699B2, “Metalloproteinase inhibitors, pharmaceutical compositions containing them, and their use” (Agouron Pharmaceuticals Inc., priority 1996, dated 2002).

How the values were obtained:
[1] = molecular target: T1, catalytic domain of human stromelysin (Hsln) (Homo sapiens, UniProt P08254); assay: Fluorometric MCA-peptide hydrolysis assay, stromelysin (Hsln); type: biochemical; conditions: apparent Ki; 10 μM MCA peptide substrate, 37° C., pH 7.5; read-out: Hsln (Ki,app)
T1 construct: The catalytic domain of human stromelysin (Hsln) was obtained by expression and purification of a C-terminally truncated prostromelysin-1; made in house; host or cells: E. coli BL21
How it was run: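 APMA-activated E. coli–expressed catalytic domain, with 10 μM MCA-Pro-Leu-Gly-Leu-DPA-Ala-Arg-NH2 at 37 °C. Buffer was pH 7.5 Tricine with NaCl, CaCl2, zinc acetate and 2% final DMSO; fluorescence read at ex 328/em 393 nm over 60 min. Ki,app from steady-state rates fitted to competitive or Morrison tight-binding equations.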

[2] = molecular target: T2, Human matrilysin (Matr) (Homo sapiens, UniProt P09237); assay: Fluorometric MCA-peptide hydrolysis assay, matrilysin (Matr); type: biochemical; conditions: apparent Ki; 10 μM MCA peptide substrate, 37° C., pH 7.5; read-out: Matr (Ki,app)
T2 construct: the catalytic domain was liberated by treatment with 2 mM APMA at 37° C. for 2 hours; ubiquitin (cleaved yes); made in house; host or cells: E. coli
T2 sequence (P09237 95-267): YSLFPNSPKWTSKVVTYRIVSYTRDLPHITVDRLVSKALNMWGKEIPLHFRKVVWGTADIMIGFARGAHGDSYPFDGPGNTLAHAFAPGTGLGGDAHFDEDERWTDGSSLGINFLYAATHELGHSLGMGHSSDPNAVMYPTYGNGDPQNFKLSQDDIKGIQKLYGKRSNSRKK
How it was run: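 Catalytic domain of E. coli-expressed human matrilysin assayed at 37° C, pH 7.5 Tricine buffer, 2% DMSO, with 10 μM MCA-Pro-Leu-Gly-Leu-DPA-Ala-Arg-NH2; fluorescence ex 328/em 393 nm over 60 min. Ki,app from steady-state rates fitted to competitive inhibition or Morrison tight-binding equation.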

[3] = molecular target: T3, fibroblast collagenase-1 catalytic domain (HFC) (Homo sapiens, UniProt P03956); assay: Fluorometric MCA-peptide hydrolysis assay, fibroblast collagenase-1 (HFC); type: biochemical; conditions: apparent Ki; 10 μM MCA peptide substrate, 37° C., pH 7.5; read-out: HFC (Ki,app)
T3 construct: The catalytic domain of human collagenase-1 was expressed as a fusion protein with ubiquitin in E. coli; ubiquitin (cleaved yes); made in house; host or cells: E. coli
T3 sequence (P03956 100-269 limits assumed): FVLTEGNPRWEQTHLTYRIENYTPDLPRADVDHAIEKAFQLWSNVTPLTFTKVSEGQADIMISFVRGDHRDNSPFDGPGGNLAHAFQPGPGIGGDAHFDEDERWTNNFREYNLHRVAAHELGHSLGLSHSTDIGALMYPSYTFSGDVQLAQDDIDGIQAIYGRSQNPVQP
How it was run: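 Human collagenase-1 catalytic domain, expressed in E. coli as ubiquitin fusion, was assayed with 10 μM MCA-Pro-Leu-Gly-Leu-DPA-Ala-Arg-NH2 at 37 °C in Tricine pH 7.5, 2% DMSO, over 60 min (ex 328/em 393 nm). Ki,app came from steady-state rates fitted to competitive or Morrison tight-binding equations.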

[4] = Determination of inhibitor concentration in plasma after oral dosing; type: in vivo, Sprague Dawley rats; conditions: Sprague-Dawley, rat plasma, dose 50 mg/kg, vehicle B (60% aq. propylene glycol)
Procedure: The dosing solution consisted of the inhibitor dissolved in either a molar equivalent of HCl in water (vehicle A), in 60% aq. propylene glycol (vehicle B), or in 2.8 mg/mL sodium bicarbonate in 60% aqueous propylene glycol (vehicle C), yielding a final concentration that ranged from 10-15 mg/ml. Sprague Dawley rats (Hilltop Lab Animals, Scottsdale, Pa.) were dosed as a function of drug weight per body weight, usually 50 mgper kg. Blood was taken from the rats and centrifuged, and the plasma was stored in the freezer. Drug was extracted from a 50 μl plasma aliquot by adding 1 ml of acetonitrile, shaking for 2 minutes, centrifuging for 15 minutes at 4000 rpm, collecting the supernatant, and then evaporating it to dryness under a stream of nitrogen. The samples were reconstituted with 130 μl of mobile phase, shook for 2 minutes, and centrifuged for 15 minutes at 4000 rpm. The supernatant was collected and the samples were analyzed by injecting 100 μl of supernatant onto HPLC.
Quantitation of drug levels was accomplished by generating a standard curve of known drug amounts that were extracted from added plasma. Drug levels were plotted as a function of time and analyzed to provide area under the curve (AUC) and maximum concentration (Cmax) values.

T1 sequence (P08254 100-272 limits assumed): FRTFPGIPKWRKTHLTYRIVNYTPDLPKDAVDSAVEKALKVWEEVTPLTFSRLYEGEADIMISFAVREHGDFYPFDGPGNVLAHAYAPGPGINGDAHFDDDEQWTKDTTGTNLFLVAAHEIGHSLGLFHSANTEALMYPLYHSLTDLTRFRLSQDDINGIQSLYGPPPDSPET

## CNC(=O)[C@@H](NC(=O)[C@@H](CC(=O)O)n1ccc(-c2ccc(-c3ccc(C#N)cc3)cc2)c1)C(C)(C)C [Example 5(c), 3(R)-[3-(4′-Cyanobiphenyl-4-yl)-1H-pyrrol-1-yl]-N-[2,2-dimethyl-1(S)-(methylcarbamoyl)propyl]succinamic Acid]
[1]
  Ki: 1.5 nM
[2]
  Ki: 305 nM
[3]
  Ki: 1500 nM
[4]
  AUC: 1220 ng·h/mL
  Cmax: 410 ng/mL
other
  melting point: 142 to 144 °C
